Measurements: patent US6528528B2 (Warner-Lambert Company, priority 1997, dated 2003)

Key:
[1] = target: T1, rabbit reticulocyte 15-LO (Oryctolagus cuniculus, UniProt P12530); experiment: Rabbit Reticulocyte 15-LO Assay (h15LO); assay type: biochemical; details: Table 2; 2U rabbit reticulocyte 15-LO, 174 μM linoleic acid, 15 minutes at 4° C.
T1 construct: Fifteen-lipoxygenase was obtained from phenylhydrazine-treated rabbits and purified per the method of Rapoport; from tissue; host or cells: reticulocytes of phenylhydrazine-treated rabbits
T1 sequence (P12530 1-663): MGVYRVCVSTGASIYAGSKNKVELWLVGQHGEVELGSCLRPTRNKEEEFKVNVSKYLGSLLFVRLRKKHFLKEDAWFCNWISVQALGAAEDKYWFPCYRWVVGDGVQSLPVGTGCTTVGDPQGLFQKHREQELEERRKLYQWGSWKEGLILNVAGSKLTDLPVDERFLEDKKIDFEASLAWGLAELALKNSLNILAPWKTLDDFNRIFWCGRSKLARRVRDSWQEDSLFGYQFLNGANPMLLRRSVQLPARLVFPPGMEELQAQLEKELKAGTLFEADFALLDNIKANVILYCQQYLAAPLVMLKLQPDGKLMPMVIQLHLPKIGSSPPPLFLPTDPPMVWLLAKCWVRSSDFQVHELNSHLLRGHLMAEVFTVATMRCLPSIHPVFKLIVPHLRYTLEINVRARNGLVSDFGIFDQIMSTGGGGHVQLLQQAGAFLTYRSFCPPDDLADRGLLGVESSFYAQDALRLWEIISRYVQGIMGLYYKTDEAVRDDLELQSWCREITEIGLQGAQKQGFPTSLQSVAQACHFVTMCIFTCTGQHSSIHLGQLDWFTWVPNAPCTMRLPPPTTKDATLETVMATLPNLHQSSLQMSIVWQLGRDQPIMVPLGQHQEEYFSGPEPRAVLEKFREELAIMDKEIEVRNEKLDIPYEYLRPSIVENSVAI
In short: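 Linoleic acid oxidation to 13-HPODE measured at 4° C. over 15 minutes, using 174 μM substrate and 2U enzyme purified from phenylhydrazine-treated rabbits in PBS/0.2% Na cholate. Product peak areas calibrated with authentic 13-HODE; inhibition expressed versus maximal reaction.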

| IC50 [1] [nM] | melting point [°C] | SMILES |
| --- | --- | --- |
| 1460 | 170 to 171 | COc1ccc(NC(=O)c2ccc(O)c(Nc3cc(Cl)cc(Cl)c3)c2)cc1O [Example 59, 3-(3,5-Dichloro-phenylamino)-4-hydroxy-N-(3-hydroxy-4-methoxyphenyl)-benzamide] |
| 11 | 165 to 168 | COc1ccc(C(=O)Nc2ccccc2)cc1NC(=S)Nc1cccc(Cl)c1 [Example 61, 3-[3-(3-Chlorophenyl)-thioureido]-4-methoxy-N-phenyl-benzamide] |
| 70 | 174 to 176 | COc1ccc(C(=O)Nc2ccccc2)cc1NC(=S)Nc1ccccc1 [Example 62, 4-Methoxy-N-phenyl-3-(3-phenyl-thioureido)-benzamide] |
| 49 | 194 to 196 | COc1ccc(C(=O)Nc2ccccc2)cc1NC(=S)Nc1ccc(C(F)(F)F)cc1 [Example 63, 4-Methoxy-N-phenyl-3-[3-(4-trifluoromethyl-phenyl)-thioureido]-benzamide] |
| 41 | 198 to 200 | COc1ccc(C(=O)Nc2ccccc2)cc1NC(=S)Nc1ccc(C(C)(C)C)cc1 [Example 64, 3-[3-(4-tert-Butyl-phenyl)-thioureido]-4-methoxy-N-phenyl-benzamide] |
| 500 | 174 to 177 | O=C(Nc1ccccc1)c1cccc(NC(=S)Nc2cc(Cl)cc(Cl)c2)c1 [Example 70, 3-[3-(3,5-Dichlorophenyl)-thioureido]-N-phenyl-benzamide] |
| 526 | 182 to 184 | Cc1ccc(C(=O)Nc2ccccc2)cc1NC(=S)Nc1cc(Cl)cc(Cl)c1 [Example 71, 3-[3-(3,5-Dichlorophenyl)-thioureido]-4-methyl-N-phenyl-benzamide] |
| 56 | 170 to 171 | COc1ccc(C(=O)Nc2ccccc2)cc1NC(=S)Nc1ccc(OC)c(OC)c1 [Example 72, 3-[3-(3,4-Dimethoxyphenyl)-thioureido]-4-methoxy-N-phenyl-benzamide] |
| 14.9 | 183 to 185 | COc1ccc(C(=O)Nc2ccccc2)cc1NC(=S)Nc1cccc(C#N)c1 [Example 74, 3-[3-(3-Cyanophenyl)-thioureido]-4-methoxy-N-phenyl-benzamide] |
| 48 | 176 to 177 | COc1ccc(C(=O)Nc2ccccc2)cc1NC(=S)Nc1cccc(C(C)=O)c1 [Example 76, 3-[3-(3-Acetyl-phenyl)-thioureido]-4-methoxy-N-phenyl-benzamide] |
| 11 | 174 to 175 | COc1ccc(C(=O)Nc2ccccc2)cc1NC(=S)Nc1ccc(Cl)c([N+](=O)[O-])c1 [Example 77, 3-[3-(4-Chloro-3-nitrophenyl)-thioureido]-4-methoxy-N-phenyl-benzamide] |
| 390 | 182 to 183 | COc1ccc(C(=O)Nc2ccccc2)cc1NC(=S)Nc1ccc(F)cc1 [Example 78, 3-[3-(4-Fluorophenyl)-thioureido]-4-methoxy-N-phenyl-benzamide] |
| 127 | 175 to 182 | COc1ccc(NC(=O)c2ccc(OC)c(NC(=S)Nc3cc(Cl)cc(Cl)c3)c2)cc1 [Example 79, 3-[3-(3,5-Dichlorophenyl)-thioureido]-4-methoxy-N-(4-methoxy-phenyl)-benzamide] |
| 39 | 201 to 202 | CCOc1ccc(C(=O)Nc2ccccc2)cc1NC(=S)Nc1cc(Cl)cc(Cl)c1 [Example 80, 3-[3-(3,5-Dichlorophenyl)-thioureido]-4-ethoxy-N-phenyl-benzamide] |
| 19 | 178 to 179 | COc1ccc(C(=O)Nc2ccccc2)cc1NC(=S)Nc1cccnc1 [Example 81, 4-Methoxy-N-phenyl-3-(3-pyridin-3-yl-thioureido)-benzamide] |
| 124 | > 280 | COc1ccc(C(=O)Nc2ccccc2)cc1NC(=S)Nc1ccc(S(=O)(=O)O)cc1 [Example 82, 4-[3-(2-Methoxy-5-phenylcarbamoyl-phenyl)-thioureido]-benzenesulfonic Acid] |
| 81 | 168 to 169 | COc1ccc(NC(=S)Nc2cc(C(=O)Nc3ccccc3)ccc2OC)cc1 [Example 83, 4-Methoxy-3-[3-(4-methoxy-phenyl)-thioureido]-N-phenyl-benzamide] |

| IC50 [1] [nM] | melting point [°C] | SMILES |
| --- | --- | --- |
| 20 | 177 to 178 | COc1ccc(C(=O)Nc2ccccc2)cc1NC(=S)Nc1cccc(C(F)(F)F)c1 [Example 84, 4-Methoxy-N-phenyl-3-[3-(3-trifluoromethyl-phenyl)-thioureido]-benzamide] |
| 20 | 174 to 175 | COc1ccc(C(=O)Nc2ccccc2)cc1NC(=S)Nc1ccc(Cl)c(Cl)c1 [Example 85, 3-[3-(3,4-Dichlorophenyl)-thioureido]-4-methoxy-N-phenyl-benzamide] |
| 260 | 218 to 219 | COc1ccc(NC(=O)Nc2ccccc2)cc1NC(=S)Nc1cc(Cl)cc(Cl)c1 [Example 86, 1-{3-[3-(3,5-Dichlorophenyl)-thioureido]-4-methoxyphenyl}-3-phenyl-urea] |
| 102 | 194 to 195 | COc1ccc(NC(=O)c2ccccc2)cc1NC(=S)Nc1cc(Cl)cc(Cl)c1 [Example 87, N-{^3-[^3-(3,5-Dichlorophenyl)-thioureido]-4-methoxy-phenyl}-benzamide] |
| 33 | 183 to 184 | COc1ccc(C(=O)Nc2ccccc2)cc1NC(=S)Nc1ccc([N+](=O)[O-])cc1 [Example 88, 4-Methoxy-3-[3-(4-nitrophenyl)-thioureido]-N-phenyl-benzamide] |
| 35 | 192 to 193 | COc1ccc(C(=O)Nc2ccccc2)cc1NC(=S)Nc1cc(C(F)(F)F)cc(C(F)(F)F)c1 [Example 89, 3-[3-(3,5-Bis-trifluoromethylphenyl)-thioureido]-4-methoxy-N-phenyl-benzamide] |
| 24 | 193 to 195 | COc1ccc(C(=O)Nc2ccccc2)cc1NC(=S)Nc1ccc(S(N)(=O)=O)cc1 [Example 90, 4-Methoxy-N-phenyl-3-[3-(4-sulfamoyl-phenyl)-thioureido]-benzamide] |
| 17 | 180 to 185 | COc1ccc(C(=O)Nc2ccc(Cl)cc2)cc1NC(=S)Nc1cc(Cl)cc(Cl)c1 [Example 92, N-(4-Chlorophenyl)-3-[3-(3,5-dichlorophenyl)-thioureido]-4-methoxy-benzamide] |
| 82 | 179 to 180 | COc1ccc(C(=O)Nc2ccccc2)cc1NC(=S)Nc1ccc(N(C)C)cc1 [Example 93, 3-[3-(4-Dimethylaminophenyl)-thioureido]-4-methoxy-N-phenyl-benzamide] |
| 42 | 178 to 180 | COc1ccc(C(=O)Nc2ccc(C)cc2)cc1NC(=S)Nc1cc(Cl)cc(Cl)c1 [Example 94, 3-[3-(3,5-Dichlorophenyl)-thioureido]-4-methoxy-N-p-tolyl-benzamide] |
| 11 | 168 to 171 | COc1ccc(C(=O)Nc2ccccc2)cc1NC(=S)Nc1cccc(C)c1 [Example 95, 4-Methoxy-N-phenyl-3-(3-m-tolyl-thioureido)-benzamide] |
| 46 | 173 to 175 | O=C(Nc1ccccc1)c1ccc(F)c(NC(=S)Nc2cc(Cl)cc(Cl)c2)c1 [Example 96, 3-[3-(3,5-Dichlorophenyl)-thioureido]-4-fluoro-N-phenyl-benzamide] |
| 19 | 189 to 191 | COc1ccc(C(=O)Nc2ccc(Cl)c(Cl)c2)cc1NC(=S)Nc1cc(Cl)cc(Cl)c1 [Example 97, N-(3,4-Dichlorophenyl)-3-[3-(3,5-dichlorophenyl)-thioureido]-4-methoxy-benzamide] |
| 1000 | 172 to 174 | COc1ccc(C(=O)Nc2ccccc2)cc1NC(=S)Nc1ccccc1C [Example 98, 4-Methoxy-N-phenyl-3-(3-o-tolyl-thioureido)-benzamide] |
| 11 | 203 to 205 | COc1ccc(C(=O)Nc2ccccc2)cc1NC(=S)Nc1cc(C)cc(C)c1 [Example 99, 3-[3-(3,5-Dimethylphenyl)-thioureido]-4-methoxy-N-phenyl-benzamide] |
| 170 | 155 to 160 | COc1ccc(C(=O)Nc2ccc(C)c(C)c2)cc1NC(=S)Nc1cccc(C)c1 [Example 102, N-(3,4-Dimethylphenyl)-4-methoxy-3-(3-m-tolyl-thioureido)-benzamide] |
| 13 | 195 to 196 | COc1ccc(C(=O)Nc2ccc(C)c(Cl)c2)cc1NC(=S)Nc1cc(Cl)cc(Cl)c1 [Example 104, N-(3-Chloro-4-methylphenyl)-3-[3-(3,5-dichlorophenyl)-thioureido]-4-methoxy-benzamide] |
